Data: paper PMC4585962, “A peptide factor secreted by Staphylococcus pseudintermedius exhibits properties of both bacteriocins and virulence factors” (Scientific Reports, 2015)
No end group written: not given here. *: point of attachment. For = O=C*

Tests used:
proteinase K = target: T1, proteinase K (Parengyodontium album, UniProt P06873); test: Susceptibility to proteolysis, residual bactericidal activity; assay type: in vitro ADME; conditions: 30 μM peptide, 100 mM Tris-HCl pH 8.0 with 5 mM CaCl2, enzyme:peptide 1:50 or 1:10 (w/w), 3 hours, 37 °C; residual activity by radial diffusion assay on B. subtilis; triplicate
T1 construct: purchased A&A Biotechnology
Experimental: (§1) The bactericidal activity of BacSp222 was also determined using the radial diffusion assay. In TSB agar (1%, w/v) containing a 200× diluted overnight culture of Bacillus subtilis ATCC 6633, wells of 2.4-mm diameter were created by drilling out the agar and filling the hole with 10 μl of the BacSp222 preparation for testing. Following overnight incubation at 37 °C, the bactericidal activity was measured as the area of the inhibition zones.
(§2) The temperature stability of BacSp222 (30 μM final concentration) was determined in PBS. The solution was incubated for 1 or 3 h at 72 °C (typical temperature of pasteurization) or at 100 °C. Independently, a solution of bacteriocin was also subjected to a full cycle of autoclaving (20 min at 121 °C). The susceptibility of BacSp222 to proteolysis was verified using S. aureus staphopain C and V8 peptidase, human neutrophil elastase, human cathepsin G (Biocentrum), bovine TPCK-treated trypsin, pepsin from porcine gastric mucosa (Sigma), and proteinase K (A&A Biotechnology). The dried samples of BacSp222 were dissolved to a final concentration of 30 μM in the following buffers: 100 mM Tris-HCl pH 8.0 containing 5 mM CaCl2 (for trypsin and proteinase K), 100 mM Tris-HCl pH 7.5 containing 5 mM cysteine hydrochloride and 5 mM EDTA (for staphopain C), 100 mM Tris-HCl pH 8.0 (for elastase), 100 mM Tris-HCl pH 7.5 containing 500 mM NaCl (for cathepsin G), 100 mM sodium phosphate pH 7.8 (for V8 peptidase), and 100 mM ammonium acetate pH 4.0 (for pepsin). The peptidases were added at 1:50 or 1:10 (enzyme:BacSp222) ratios by weight, and the mixtures were incubated for 1 or 3 h at 37 °C. The residual activity was determined with the radial diffusion assay using Bacillus subtilis as an indicator strain. All of the above experiments were performed in triplicate.

human cathepsin G = target: T2, human cathepsin G (Homo sapiens, UniProt P08311); test: as above; assay type: in vitro ADME; conditions: 30 μM peptide, 100 mM Tris-HCl pH 7.5 with 500 mM NaCl, enzyme:peptide 1:50 or 1:10 (w/w), 3 hours, 37 °C; residual activity by radial diffusion assay on B. subtilis; triplicate
T2 construct: purchased Biocentrum
Experimental: as §1, §2

[1] = target: T3, pepsin from porcine gastric mucosa (Sus scrofa, UniProt P00791); test: as above; assay type: in vitro ADME; conditions: 30 μM peptide, 100 mM ammonium acetate pH 4.0, enzyme:peptide 1:50 or 1:10 (w/w), 3 hours, 37 °C; residual activity by radial diffusion assay on B. subtilis; triplicate
T3 construct: purchased Sigma; host or cells: porcine gastric mucosa
Experimental: as §1, §2

[2] = target: T4, bovine TPCK-treated trypsin (Bos taurus, UniProt P00760); test: as above; assay type: in vitro ADME; conditions: 30 μM peptide, 100 mM Tris-HCl pH 8.0 with 5 mM CaCl2, enzyme:peptide 1:50 or 1:10 (w/w), 3 hours, 37 °C; residual activity by radial diffusion assay on B. subtilis; triplicate
T4 construct: purchased Sigma
Experimental: as §1, §2

[3] = test system: Bacillus subtilis ATCC 6633; test: MIC, microdilution assay; assay type: cell-based; conditions: broth microdilution (CLSI), MHB, overnight 37 °C, OD 600 nm; mean of three independent measurements
Experimental: (§3) The microbicidal activity of BacSp222 was determined using the microdilution method in compliance with Clinical and Laboratory Standards Institute (CLSI, for bacteria) guidelines M7-A7[57] and in compliance with the European Committee on Antimicrobial Susceptibility Testing - Subcommittee on Antifungal Susceptibility Testing (EUCAST-AFST, for fungi)[58]. Briefly, the microorganisms were cultivated in dedicated liquid media to reach the early exponential phase or, in the case of Streptococcus spp., grown overnight on agar MHB supplemented with 2.5% (v/v) lysed horse blood (LHB). Subsequently, the microorganisms were diluted to 1 × 10^6 CFU/ml (estimated using an Eddy Jet 2 automatic spiral plater, IUL) in MHB; in MHB supplemented with 5% (v/v) LHB (for streptococci); or, in the case of Candida albicans, in RPMI-1640 medium (Thermo) without L-Glu and phenol red, supplemented with 0.6 g/l L-Glu, 34.53 g/l 3-(N-morpholino)propanesulphonic acid and 18 g/l glucose, pH 7.0. Fifty microliters of microorganism suspension were mixed with an equal volume of appropriate medium containing serial 2- or 1.5-fold dilutions of BacSp222. After the cultures were incubated overnight at 37 °C, the optical density (OD) at 600 nm was measured. The minimal inhibitory concentration (MIC), calculated as a mean value from three independent measurements, was defined as the minimum peptide concentration for which an increase in OD was not observed compared to uninoculated broth.

[4] = test system: Staphylococcus saprophyticus ATCC 15305; test: MIC, microdilution assay; assay type: cell-based; conditions: broth microdilution (CLSI), MHB, overnight 37 °C, OD 600 nm; mean of three independent measurements
Experimental: as §3

Escherichia coli K12 = test: MIC, microdilution assay; assay type: cell-based; conditions: broth microdilution (CLSI), MHB, overnight 37 °C, OD 600 nm; highest concentration tested 100 μM
Experimental: as §3

[5] = test system: Serratia marcescens ATCC 274; test: MIC, microdilution assay; assay type: cell-based; conditions: broth microdilution (CLSI), MHB, overnight 37 °C, OD 600 nm; highest concentration tested 100 μM
Experimental: as §3

[6] = test system: Micrococcus luteus ATCC 4698; test: MIC, microdilution assay; assay type: cell-based; conditions: broth microdilution (CLSI), MHB, overnight 37 °C, OD 600 nm; mean of three independent measurements
Experimental: as §3

[7] = test system: Klebsiella pneumoniae ATCC 13886; test: MIC, microdilution assay; assay type: cell-based; conditions: broth microdilution (CLSI), MHB, overnight 37 °C, OD 600 nm; highest concentration tested 100 μM
Experimental: as §3

[8] = test system: Streptococcus sanguinis PCM 2335; test: MIC, microdilution assay; assay type: cell-based; conditions: broth microdilution (CLSI), MHB with 5% lysed horse blood, overnight 37 °C, OD 600 nm; mean of three independent measurements
Experimental: as §3

[9] = test system: Staphylococcus intermedius ATCC 29663; test: MIC, microdilution assay; assay type: cell-based; conditions: broth microdilution (CLSI), MHB, overnight 37 °C, OD 600 nm; mean of three independent measurements
Experimental: as §3

[10] = test system: Staphylococcus aureus KB/8658; test: MIC, microdilution assay; assay type: cell-based; conditions: broth microdilution (CLSI), MHB, overnight 37 °C, OD 600 nm; mean of three independent measurements
Experimental: as §3

[11] = test system: Staphylococcus aureus ATCC 25923; test: MIC, microdilution assay; assay type: cell-based; conditions: broth microdilution (CLSI), MHB, overnight 37 °C, OD 600 nm; mean of three independent measurements
Experimental: as §3

[12] = test system: Lactococcus lactis subsp. lactis ŁOCK 0871 strain 239; test: MIC, microdilution assay; assay type: cell-based; conditions: broth microdilution (CLSI), MHB, overnight 37 °C, OD 600 nm; mean of three independent measurements
Experimental: as §3

[13] = test system: Staphylococcus aureus DSM 26258 (CH91); test: MIC, microdilution assay; assay type: cell-based; conditions: broth microdilution (CLSI), MHB, overnight 37 °C, OD 600 nm; mean of three independent measurements
Experimental: as §3

[14] = test system: Staphylococcus epidermidis ATCC 35547; test: MIC, microdilution assay; assay type: cell-based; conditions: broth microdilution (CLSI), MHB, overnight 37 °C, OD 600 nm; mean of three independent measurements
Experimental: as §3

[15] = test system: Staphylococcus aureus MRSA USA300 strain FPR3757; test: MIC, microdilution assay; assay type: cell-based; conditions: broth microdilution (CLSI), MHB, overnight 37 °C, OD 600 nm; mean of three independent measurements
Experimental: as §3

T3 sequence (P00791 60-385): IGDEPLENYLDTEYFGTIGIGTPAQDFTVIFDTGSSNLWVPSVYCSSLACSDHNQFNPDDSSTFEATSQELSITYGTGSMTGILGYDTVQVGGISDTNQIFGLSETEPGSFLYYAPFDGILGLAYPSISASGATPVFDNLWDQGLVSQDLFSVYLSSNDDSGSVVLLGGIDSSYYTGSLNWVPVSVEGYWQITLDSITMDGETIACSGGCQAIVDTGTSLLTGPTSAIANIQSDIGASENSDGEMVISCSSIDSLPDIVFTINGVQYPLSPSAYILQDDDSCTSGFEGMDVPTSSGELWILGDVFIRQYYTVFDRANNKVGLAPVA
T4 sequence (P00760 24-246): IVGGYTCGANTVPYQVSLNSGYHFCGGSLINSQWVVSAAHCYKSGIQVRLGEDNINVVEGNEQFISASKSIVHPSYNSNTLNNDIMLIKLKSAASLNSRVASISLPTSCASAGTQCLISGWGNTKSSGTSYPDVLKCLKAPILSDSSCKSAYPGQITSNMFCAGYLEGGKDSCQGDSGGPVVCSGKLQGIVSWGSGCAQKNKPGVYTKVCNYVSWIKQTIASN
T2 sequence (P08311 21-255): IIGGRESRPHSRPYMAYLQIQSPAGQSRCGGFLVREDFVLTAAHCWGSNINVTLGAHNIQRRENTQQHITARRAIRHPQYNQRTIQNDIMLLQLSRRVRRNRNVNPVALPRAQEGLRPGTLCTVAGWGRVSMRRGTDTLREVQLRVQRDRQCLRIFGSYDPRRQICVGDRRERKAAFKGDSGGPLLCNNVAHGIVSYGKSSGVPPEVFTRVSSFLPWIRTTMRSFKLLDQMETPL
T1 sequence (P06873 106-384): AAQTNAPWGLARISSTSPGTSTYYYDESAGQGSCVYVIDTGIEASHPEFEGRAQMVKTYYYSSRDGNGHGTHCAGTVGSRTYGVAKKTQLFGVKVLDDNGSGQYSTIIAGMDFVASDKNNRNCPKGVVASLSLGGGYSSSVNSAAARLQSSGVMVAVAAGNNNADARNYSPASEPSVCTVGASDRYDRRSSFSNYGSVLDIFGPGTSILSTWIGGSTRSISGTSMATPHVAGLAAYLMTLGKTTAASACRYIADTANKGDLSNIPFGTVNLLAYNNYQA

For-MAGLLRFLLSKGRALYNWAKSHVGKVWEWLKSGATYEQIKEWIENALGWR [BacSp222]
activity of BacSp222 after incubation with the enzyme (proteinase K): not significantly reduced
activity of BacSp222 after incubation with the enzyme (human cathepsin G): not significantly reduced
activity of BacSp222 after incubation with the enzyme [1]: not significantly reduced
activity of BacSp222 after incubation with the enzyme [2]: not significantly reduced
MIC ± SD [3]: 0.16 ± 0.00 µM
MIC ± SD [4]: 0.93 ± 0.36 µM
MIC ± SD (Escherichia coli K12): >100 µM
MIC ± SD [5]: >100 µM
MIC ± SD [6]: 0.11 µM
MIC ± SD [7]: >100 µM
MIC ± SD [8]: 3.50 ± 0.85 µM
MIC ± SD [9]: 2.00 ± 0.00 µM
MIC ± SD [10]: 1.30 ± 0.00 µM
MIC ± SD [11]: 1.00 ± 0.36 µM
MIC ± SD [12]: 0.89 ± 0.00 µM
MIC ± SD [13]: 0.92 ± 0.23 µM
MIC ± SD [14]: 4.40 ± 0.00 µM
MIC ± SD [15]: 0.89 ± 0.00 µM
